Results reported in PMC7508466 (Bioorganic & medicinal chemistry letters, 2020).
“Also recorded” adds a separate entry of the source.

Tests used:
human sst2 receptor = human sst2 receptor (Homo sapiens, UniProt P30874); assay: cAMP functional assay in CHO-K1 cells stably expressing human sst2 receptor; type: cell-based; details: for sst2 pEC50±SEM: human sst2, CHO-K1 cells, cAMP, average of two or more independent measurements
CYP450 3A4 = CYP450 3A4 (Homo sapiens, UniProt P08684); assay: in vitro screening CYP450 inhibition assay, 3A4; type: in vitro ADME; details: top concentration tested 10 μM
Sequence of CYP450 3A4 (P08684 whole entry): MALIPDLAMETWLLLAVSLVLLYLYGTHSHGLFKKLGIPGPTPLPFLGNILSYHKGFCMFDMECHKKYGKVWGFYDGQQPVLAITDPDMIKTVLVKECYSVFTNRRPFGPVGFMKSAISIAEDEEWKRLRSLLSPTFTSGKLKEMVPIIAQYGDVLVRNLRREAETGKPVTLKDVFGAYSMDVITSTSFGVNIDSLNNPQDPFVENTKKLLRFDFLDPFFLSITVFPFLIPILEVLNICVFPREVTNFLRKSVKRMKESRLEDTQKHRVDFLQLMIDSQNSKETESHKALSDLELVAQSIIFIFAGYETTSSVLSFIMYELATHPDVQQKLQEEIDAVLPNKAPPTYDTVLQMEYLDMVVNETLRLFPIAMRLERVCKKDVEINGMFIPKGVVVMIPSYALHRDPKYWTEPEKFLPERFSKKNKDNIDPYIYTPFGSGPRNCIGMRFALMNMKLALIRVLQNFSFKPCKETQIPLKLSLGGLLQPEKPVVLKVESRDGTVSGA

CYP450 2C9 = CYP450 2C9 (Homo sapiens, UniProt P11712); assay: in vitro screening CYP450 inhibition assay, 2C9; type: in vitro ADME; details: top concentration tested 10 μM
Sequence of CYP450 2C9 (P11712 whole entry): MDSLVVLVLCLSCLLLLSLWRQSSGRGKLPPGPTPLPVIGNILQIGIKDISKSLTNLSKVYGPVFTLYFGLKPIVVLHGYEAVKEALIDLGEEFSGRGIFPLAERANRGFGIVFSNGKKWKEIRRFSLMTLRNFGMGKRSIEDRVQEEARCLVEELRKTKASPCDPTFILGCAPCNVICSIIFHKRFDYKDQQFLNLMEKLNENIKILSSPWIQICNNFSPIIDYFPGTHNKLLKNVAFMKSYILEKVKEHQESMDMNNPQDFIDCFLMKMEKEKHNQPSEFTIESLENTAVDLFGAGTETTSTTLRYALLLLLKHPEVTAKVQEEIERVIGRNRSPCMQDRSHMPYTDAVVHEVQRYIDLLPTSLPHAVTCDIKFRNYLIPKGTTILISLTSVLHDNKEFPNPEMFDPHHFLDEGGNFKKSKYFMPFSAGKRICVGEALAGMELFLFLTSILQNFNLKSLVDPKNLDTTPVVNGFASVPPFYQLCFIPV

CYP450 2C19 = CYP450 2C19 (Homo sapiens, UniProt P33261); assay: in vitro screening CYP450 inhibition assay, 2C19; type: in vitro ADME; details: top concentration tested 10 μM
Sequence of CYP450 2C19 (P33261 whole entry): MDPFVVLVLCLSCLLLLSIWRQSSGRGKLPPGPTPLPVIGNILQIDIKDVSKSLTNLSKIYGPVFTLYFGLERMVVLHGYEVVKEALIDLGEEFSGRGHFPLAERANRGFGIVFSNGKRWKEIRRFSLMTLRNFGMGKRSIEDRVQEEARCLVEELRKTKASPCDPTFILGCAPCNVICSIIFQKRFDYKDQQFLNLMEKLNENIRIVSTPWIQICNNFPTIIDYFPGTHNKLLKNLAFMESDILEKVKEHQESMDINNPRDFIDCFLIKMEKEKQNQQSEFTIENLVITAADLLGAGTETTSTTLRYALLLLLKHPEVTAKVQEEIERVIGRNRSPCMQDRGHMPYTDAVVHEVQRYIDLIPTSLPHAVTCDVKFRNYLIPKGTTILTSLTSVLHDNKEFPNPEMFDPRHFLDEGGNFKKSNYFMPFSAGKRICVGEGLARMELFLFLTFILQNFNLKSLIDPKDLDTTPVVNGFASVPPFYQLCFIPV

hERG channel = hERG channel (Homo sapiens, UniProt Q12809); assay: hERG inhibition binding assay
Sequence of hERG channel (Q12809 whole entry): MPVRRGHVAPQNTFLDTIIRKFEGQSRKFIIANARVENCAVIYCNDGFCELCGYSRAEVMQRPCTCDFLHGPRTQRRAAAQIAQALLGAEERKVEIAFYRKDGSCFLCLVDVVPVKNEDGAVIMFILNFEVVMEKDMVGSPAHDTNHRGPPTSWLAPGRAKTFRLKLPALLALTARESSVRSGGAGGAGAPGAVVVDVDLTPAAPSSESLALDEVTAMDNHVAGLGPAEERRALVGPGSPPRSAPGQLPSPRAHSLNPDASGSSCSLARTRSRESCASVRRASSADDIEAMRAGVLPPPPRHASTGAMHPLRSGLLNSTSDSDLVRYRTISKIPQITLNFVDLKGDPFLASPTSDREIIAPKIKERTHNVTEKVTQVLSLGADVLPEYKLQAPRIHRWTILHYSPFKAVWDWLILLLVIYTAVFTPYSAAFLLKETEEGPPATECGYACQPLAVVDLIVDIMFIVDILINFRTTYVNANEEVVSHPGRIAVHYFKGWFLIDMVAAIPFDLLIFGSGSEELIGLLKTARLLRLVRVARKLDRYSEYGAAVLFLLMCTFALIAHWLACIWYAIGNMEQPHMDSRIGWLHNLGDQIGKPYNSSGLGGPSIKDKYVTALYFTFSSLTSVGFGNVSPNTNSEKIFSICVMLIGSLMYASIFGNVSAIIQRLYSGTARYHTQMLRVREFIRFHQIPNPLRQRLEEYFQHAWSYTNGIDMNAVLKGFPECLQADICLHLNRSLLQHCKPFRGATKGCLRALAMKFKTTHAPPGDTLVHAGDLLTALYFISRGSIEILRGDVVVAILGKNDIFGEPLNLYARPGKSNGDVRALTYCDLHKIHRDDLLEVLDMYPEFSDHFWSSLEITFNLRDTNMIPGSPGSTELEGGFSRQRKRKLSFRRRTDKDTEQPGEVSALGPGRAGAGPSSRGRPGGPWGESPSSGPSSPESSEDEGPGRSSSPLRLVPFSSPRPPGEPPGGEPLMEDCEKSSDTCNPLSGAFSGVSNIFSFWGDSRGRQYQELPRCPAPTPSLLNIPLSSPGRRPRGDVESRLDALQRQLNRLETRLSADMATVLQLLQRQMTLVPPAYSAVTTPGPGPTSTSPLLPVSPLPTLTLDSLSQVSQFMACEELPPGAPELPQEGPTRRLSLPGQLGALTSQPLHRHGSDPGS

CYP450 2D6 = CYP450 2D6 (Homo sapiens, UniProt P10635); assay: in vitro screening CYP450 inhibition assay, 2D6; type: in vitro ADME; details: top concentration tested 10 μM
Sequence of CYP450 2D6 (P10635 whole entry): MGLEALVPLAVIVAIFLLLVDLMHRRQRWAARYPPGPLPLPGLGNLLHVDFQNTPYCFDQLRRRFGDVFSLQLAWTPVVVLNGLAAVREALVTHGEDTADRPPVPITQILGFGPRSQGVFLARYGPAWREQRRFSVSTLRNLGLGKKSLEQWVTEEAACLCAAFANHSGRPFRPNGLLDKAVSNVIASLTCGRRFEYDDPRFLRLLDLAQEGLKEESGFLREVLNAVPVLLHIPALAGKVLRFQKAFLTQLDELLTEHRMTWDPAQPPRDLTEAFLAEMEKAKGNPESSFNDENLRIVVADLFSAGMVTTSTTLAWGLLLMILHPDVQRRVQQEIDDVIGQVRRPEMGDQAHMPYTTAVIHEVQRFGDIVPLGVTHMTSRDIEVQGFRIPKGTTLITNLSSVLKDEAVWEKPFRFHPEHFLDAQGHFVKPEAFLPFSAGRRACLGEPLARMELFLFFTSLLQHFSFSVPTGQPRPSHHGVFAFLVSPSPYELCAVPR

[1] = oral administration to male SD rats; type: in vivo, rat

Sequence of human sst2 receptor (P30874 whole entry): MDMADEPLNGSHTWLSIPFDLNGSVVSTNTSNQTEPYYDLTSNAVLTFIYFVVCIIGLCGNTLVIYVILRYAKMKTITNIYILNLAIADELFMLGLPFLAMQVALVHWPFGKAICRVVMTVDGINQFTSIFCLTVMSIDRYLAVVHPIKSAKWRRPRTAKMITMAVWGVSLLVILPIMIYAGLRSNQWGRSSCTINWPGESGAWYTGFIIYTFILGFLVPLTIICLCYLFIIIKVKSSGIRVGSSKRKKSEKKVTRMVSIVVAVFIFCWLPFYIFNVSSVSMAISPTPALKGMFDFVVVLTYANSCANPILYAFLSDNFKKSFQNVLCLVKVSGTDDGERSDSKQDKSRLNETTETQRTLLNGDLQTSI

Compound | sst2 pEC50±SEM (human sst2 receptor) | further results
Cc1cc(C)cc(N2C=Nc3cc(Cl)c(-c4cccc(O)c4)cc3C2C(=O)NC[C@H](C)N)c1 (some centres unmarked) [Compound 5] | – | sst2 agonist activity (in words) (human sst2 receptor; human sst2, cAMP): completely suppressed its ability to reduce cAMP production
Cc1cc(C)cc(N2C=Nc3ccc(-c4cccc(O)c4)cc3C2C(=O)N(C)C[C@H](C)N)c1 (some centres unmarked) [Compound 6] | – | decrease of sst2 agonist activity relative to compound 4 (human sst2 receptor; human sst2, cAMP): more than 10 fold
CC[C@H](N)CN(C)C(=O)C1c2cc(-c3cccc(O)c3)c(Cl)cc2N=CN1c1cc(C)cc(C)c1 (some centres unmarked) [Compound 7] | 8.0 ± 0.1 | enhancement of sst2 potency relative to compound 4 (human sst2 receptor; human sst2, cAMP): about 3 fold
CC[C@H](N)CN(C)C(=O)C1c2cc(-c3cccc(O)c3)c(C)cc2N=CN1c1cc(C)cc(C)c1 (some centres unmarked) [Compound 8] | 8.4 ± 0.2 | –
Cc1cc(C)cc(N2C=Nc3cc(C)c(-c4cccc(O)c4)cc3C2C(=O)N(C)C[C@@H]2CCCN2)c1 (some centres unmarked) [Compound 9] | 8.9 ± 0.1 | –
Cc1cc(Cl)cc(N2C=Nc3cc(C)c(-c4cccc(O)c4)cc3C2C(=O)N(C)C[C@@H]2CCCN2)c1 (some centres unmarked) [Compound 10] | 9.5 ± 0.2 | –
Cc1cc(F)cc(N2C=Nc3cc(C)c(-c4cccc(O)c4)cc3C2C(=O)N(C)C[C@@H]2CCCN2)c1 (some centres unmarked) [Compound 11] | 9.0 ± 0.1 | –
Cc1cc(Cl)cc(N2C=Nc3cc(C)c(-c4ccccc4)cc3C2C(=O)N(C)C[C@@H]2CCCN2)c1 (some centres unmarked) [Compound 12] | 7.3 ± 0.0 | sst2 agonist activity (in words) (human sst2 receptor; human sst2, cAMP): significantly diminished sst2 agonist activity
Cc1cc(Cl)cc(N2C=Nc3cc(C)c(-c4cccc(C#N)c4)cc3C2C(=O)N(C)C[C@@H]2CCCN2)c1 (some centres unmarked) [Compound 13] | 8.3 ± 0.1 | –
Cc1cc(Cl)cc(N2C=Nc3cc(C)c(-c4cncc(C#N)c4)cc3C2C(=O)N(C)C[C@@H]2CCCN2)c1 (some centres unmarked) [Compound 14] | 7.9 ± 0.4 | –
Cc1cc(Cl)cc(N2C=Nc3cc(C)c(-c4cccc(C(F)(F)F)c4)cc3C2C(=O)N(C)C[C@@H]2CCCN2)c1 (some centres unmarked) [Compound 15] | 7.3 ± 0.0 | –
Cc1cc(Cl)cc(N2C=Nc3cc(C)c(-c4cccc(Cl)c4)cc3C2C(=O)N(C)C[C@@H]2CCCN2)c1 (some centres unmarked) [Compound 16] | 7.4 ± 0.0 | –
Cc1cc(Cl)cc(N2C=Nc3cc(C)c(-c4cnn(C)c4)cc3C2C(=O)N(C)C[C@@H]2CCCN2)c1 (some centres unmarked) [Compound 17] | 6.8 ± 0.1 | sst2 agonist activity (in words) (human sst2 receptor; human sst2, cAMP): substantially reduced potency
Cc1cc(Cl)cc(N2C=Nc3cc(C)c(-c4cc(F)cc(F)c4)cc3C2C(=O)N(C)C[C@@H]2CCCN2)c1 (some centres unmarked) [Compound 19] | 8.4 ± 0.0 | –
COc1cc(F)cc(-c2cc3c(cc2C)N=CN(c2cc(C)cc(Cl)c2)C3C(=O)N(C)C[C@@H]2CCCN2)c1 (some centres unmarked) [Compound 20] | 8.2 ± 0.1 | –
Cc1cc(Cl)cc(N2C=Nc3cc(C)c(-c4cccc(NS(C)(=O)=O)c4)cc3C2C(=O)N(C)C[C@@H]2CCCN2)c1 (some centres unmarked) [Compound 23] | 6.9 ± 0.1 | –
Cc1cc(Cl)cc(N2C=Nc3cc(C)c(-c4ccc5[nH]c(=O)[nH]c5c4)cc3C2C(=O)N(C)C[C@@H]2CCCN2)c1 (some centres unmarked) [Compound 24] | 8.3 ± 0.2 | –
Cc1cc(Cl)cc(N2C=Nc3cc(C)c(-c4cncc(O)c4)cc3C2C(=O)N(C)C[C@@H]2CCCN2)c1 (some centres unmarked) [Compound 25] | 8.1 ± 0.1 | –
Cc1cc(Cl)cc(N2C=Nc3cc(C)c(-c4cccc(F)c4O)cc3C2C(=O)N(C)C[C@@H]2CCCN2)c1 (stereo partly drawn) [Compound 28, 3-(3-chloro-5-methylphenyl)-6-(3-fluoro-2-hydroxyphenyl)-N,7-dimethyl-N-{[(2S)-pyrrolidin-2-yl]methyl}-3,4-dihydroquinazoline-4-carboxamide] | – | CYP 3A4 inhibition (in words) (CYP450 3A4): little inhibition; also recorded: no inhibition; CYP 2C9 inhibition (in words) (CYP450 2C9): little inhibition; also recorded: no inhibition; CYP 2C19 inhibition (in words) (CYP450 2C19): little inhibition; also recorded: no inhibition; hERG inhibition (in words) (hERG channel): moderate inhibitors; also recorded: weak inhibition; CYP 2D6 inhibition (in words) (CYP450 2D6): little inhibition; also recorded: no inhibition; oral exposure (in words) [1]: limited oral exposure
Cc1cc(Cl)cc(N2C=Nc3cc(C)c(-c4cc(F)ccc4O)cc3C2C(=O)N(C)C[C@@H]2CCCN2)c1 (some centres unmarked) [Compound 29] | 8.7 ± 0.0 | –
Cc1cc(Cl)cc(N2C=Nc3cc(C)c(-c4cc(O)cc(C#N)c4)cc3C2C(=O)N(C)C[C@@H]2CCCN2)c1 (some centres unmarked) [Compound 30] | 9.4 ± 0.1 | sst2 agonist activity (in words) (human sst2 receptor; human sst2, cAMP): tolerable
Cc1cc(Cl)cc(N2C=Nc3cc(C)c(-c4cc(F)cc(C(N)=O)c4)cc3C2C(=O)N(C)C[C@@H]2CCCN2)c1 (some centres unmarked) [Compound 31] | – | sst2 agonist activity (in words) (human sst2 receptor; human sst2, cAMP): as potent as compound 26; hERG inhibition (in words) (hERG channel): moderate inhibitors
